Results: PubChem BioAssay (NCI)
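In this assay, cells in 96-well plates receive the compound at five concentrations for 48 hours. Endpoints are linearly interpolated between the surrounding concentrations. The concentration for 50% growth inhibition is given as GI50. TGI: concentration producing complete growth inhibition.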

How the values were obtained:
Test in all cases: NCI-60 cell line screen, 48 h
DU-145 prostate = system: DU-145 prostate
MOLT-4 leukemia = system: MOLT-4 leukemia
SF-295 CNS = system: SF-295 CNS
T-47D breast = system: T-47D breast
OVCAR-4 ovarian = system: OVCAR-4 ovarian
SK-MEL-28 melanoma = system: SK-MEL-28 melanoma
UACC-62 melanoma = system: UACC-62 melanoma
BT-549 breast = system: BT-549 breast
HCC-2998 colon = system: HCC-2998 colon
KM12 colon = system: KM12 colon
MDA-MB-231 breast = system: MDA-MB-231 breast
PC-3 prostate = system: PC-3 prostate
U251 CNS = system: U251 CNS
SNB-19 CNS = system: SNB-19 CNS
LOX IMVI melanoma = system: LOX IMVI melanoma
SW-620 colon = system: SW-620 colon
UACC-257 melanoma = system: UACC-257 melanoma
SK-MEL-5 melanoma = system: SK-MEL-5 melanoma
CAKI-1 renal = system: CAKI-1 renal
NCI-H460 lung = system: NCI-H460 lung
HCT-116 colon = system: HCT-116 colon
MDA-MB-435 = system: MDA-MB-435
SK-OV-3 ovarian = system: SK-OV-3 ovarian
CCRF-CEM leukemia = system: CCRF-CEM leukemia
EKVX NSCLC = system: EKVX NSCLC
A549 NSCLC = system: A549 NSCLC
MCF7 breast = system: MCF7 breast
SN12C renal = system: SN12C renal
HCT-15 colon = system: HCT-15 colon
HOP-92 NSCLC = system: HOP-92 NSCLC
786-0 renal = system: 786-0 renal
K-562 leukemia = system: K-562 leukemia
SF-539 CNS = system: SF-539 CNS
NCI-H23 lung = system: NCI-H23 lung
TK-10 renal = system: TK-10 renal
RXF 393 renal = system: RXF 393 renal
ACHN renal = system: ACHN renal
RPMI-8226 leukemia = system: RPMI-8226 leukemia
OVCAR-5 ovarian = system: OVCAR-5 ovarian
HT29 colon = system: HT29 colon
NCI/ADR-RES ovarian = system: NCI/ADR-RES ovarian
A498 renal = system: A498 renal
SR leukemia = system: SR leukemia
HS 578T breast = system: HS 578T breast
COLO 205 colon = system: COLO 205 colon
OVCAR-8 ovarian = system: OVCAR-8 ovarian
HOP-62 NSCLC = system: HOP-62 NSCLC
OVCAR-3 ovarian = system: OVCAR-3 ovarian
SF-268 CNS = system: SF-268 CNS
M14 melanoma = system: M14 melanoma
SNB-75 CNS = system: SNB-75 CNS
HL-60(TB) leukemia = system: HL-60(TB) leukemia
UO-31 renal = system: UO-31 renal
NCI-H226 lung = system: NCI-H226 lung
IGROV1 ovarian = system: IGROV1 ovarian
SK-MEL-2 melanoma = system: SK-MEL-2 melanoma

Structure (SMILES): CC(=O)OCC1OC(OC2CCCC[Si](c3ccccc3)(c3ccccc3)O2)C(OC(C)=O)C(OC(C)=O)C1OC(C)=O (configuration not stated)
- GI50 (DU-145 prostate): > 100 µM
- TGI (DU-145 prostate): > 100 µM
- GI50 (MOLT-4 leukemia): 10.3 µM
- TGI (MOLT-4 leukemia): > 100 µM
- GI50 (SF-295 CNS): > 100 µM
- TGI (SF-295 CNS): > 100 µM
- GI50 (T-47D breast): > 100 µM
- TGI (T-47D breast): > 100 µM
- GI50 (OVCAR-4 ovarian): > 100 µM
- TGI (OVCAR-4 ovarian): > 100 µM
- GI50 (SK-MEL-28 melanoma): > 100 µM
- TGI (SK-MEL-28 melanoma): > 100 µM
- GI50 (UACC-62 melanoma): > 100 µM
- TGI (UACC-62 melanoma): > 100 µM
- GI50 (BT-549 breast): > 100 µM
- TGI (BT-549 breast): > 100 µM
- GI50 (HCC-2998 colon): > 100 µM
- TGI (HCC-2998 colon): > 100 µM
- GI50 (KM12 colon): > 100 µM
- TGI (KM12 colon): > 100 µM
- GI50 (MDA-MB-231 breast): > 100 µM
- TGI (MDA-MB-231 breast): > 100 µM
- GI50 (PC-3 prostate): > 100 µM
- TGI (PC-3 prostate): > 100 µM
- GI50 (U251 CNS): > 100 µM
- TGI (U251 CNS): > 100 µM
- GI50 (SNB-19 CNS): > 100 µM
- TGI (SNB-19 CNS): > 100 µM
- GI50 (LOX IMVI melanoma): 53.6 µM
- TGI (LOX IMVI melanoma): > 100 µM
- GI50 (SW-620 colon): 53 µM
- TGI (SW-620 colon): > 100 µM
- GI50 (UACC-257 melanoma): > 100 µM
- TGI (UACC-257 melanoma): > 100 µM
- GI50 (SK-MEL-5 melanoma): > 100 µM
- TGI (SK-MEL-5 melanoma): > 100 µM
- GI50 (CAKI-1 renal): 38.9 µM
- TGI (CAKI-1 renal): > 100 µM
- GI50 (NCI-H460 lung): > 100 µM
- TGI (NCI-H460 lung): > 100 µM
- GI50 (HCT-116 colon): 24.5 µM
- TGI (HCT-116 colon): 59.2 µM
- GI50 (MDA-MB-435): 51 µM
- TGI (MDA-MB-435): > 100 µM
- GI50 (SK-OV-3 ovarian): > 100 µM
- TGI (SK-OV-3 ovarian): > 100 µM
- GI50 (CCRF-CEM leukemia): 35.5 µM
- TGI (CCRF-CEM leukemia): > 100 µM
- GI50 (EKVX NSCLC): > 100 µM
- TGI (EKVX NSCLC): > 100 µM
- GI50 (A549 NSCLC): > 100 µM
- TGI (A549 NSCLC): > 100 µM
- GI50 (MCF7 breast): 69.2 µM
- TGI (MCF7 breast): > 100 µM
- GI50 (SN12C renal): > 100 µM
- TGI (SN12C renal): > 100 µM
- GI50 (HCT-15 colon): > 100 µM
- TGI (HCT-15 colon): > 100 µM
- GI50 (HOP-92 NSCLC): > 100 µM
- TGI (HOP-92 NSCLC): > 100 µM
- GI50 (786-0 renal): > 100 µM
- TGI (786-0 renal): > 100 µM
- GI50 (K-562 leukemia): 56.1 µM
- TGI (K-562 leukemia): > 100 µM
- GI50 (SF-539 CNS): 29.2 µM
- TGI (SF-539 CNS): 79.1 µM
- GI50 (NCI-H23 lung): > 100 µM
- TGI (NCI-H23 lung): > 100 µM
- GI50 (TK-10 renal): > 100 µM
- TGI (TK-10 renal): > 100 µM
- GI50 (RXF 393 renal): > 100 µM
- TGI (RXF 393 renal): > 100 µM
- GI50 (ACHN renal): > 100 µM
- TGI (ACHN renal): > 100 µM
- GI50 (RPMI-8226 leukemia): 32.6 µM
- TGI (RPMI-8226 leukemia): > 100 µM
- GI50 (OVCAR-5 ovarian): > 100 µM
- TGI (OVCAR-5 ovarian): > 100 µM
- GI50 (HT29 colon): > 100 µM
- TGI (HT29 colon): > 100 µM
- GI50 (NCI/ADR-RES ovarian): > 100 µM
- TGI (NCI/ADR-RES ovarian): > 100 µM
- GI50 (A498 renal): > 100 µM
- TGI (A498 renal): > 100 µM
- GI50 (SR leukemia): 73.6 µM
- TGI (SR leukemia): > 100 µM
- GI50 (HS 578T breast): > 100 µM
- TGI (HS 578T breast): > 100 µM
- GI50 (COLO 205 colon): > 100 µM
- TGI (COLO 205 colon): > 100 µM
- GI50 (OVCAR-8 ovarian): > 100 µM
- TGI (OVCAR-8 ovarian): > 100 µM
- GI50 (HOP-62 NSCLC): > 100 µM
- TGI (HOP-62 NSCLC): > 100 µM
- GI50 (OVCAR-3 ovarian): 13.3 µM
- TGI (OVCAR-3 ovarian): 69.5 µM
- GI50 (SF-268 CNS): > 100 µM
- TGI (SF-268 CNS): > 100 µM
- GI50 (M14 melanoma): > 100 µM
- TGI (M14 melanoma): > 100 µM

Structure (SMILES): Cc1cccc(NC(=S)Nc2ccc(Cl)cc2)n1
- TGI (DU-145 prostate): > 100 µM
- TGI (MOLT-4 leukemia): > 100 µM
- TGI (SF-295 CNS): > 100 µM
- TGI (T-47D breast): > 100 µM
- TGI (OVCAR-4 ovarian): > 100 µM
- TGI (SK-MEL-28 melanoma): > 100 µM
- TGI (UACC-62 melanoma): > 100 µM
- TGI (BT-549 breast): > 100 µM
- TGI (HCC-2998 colon): > 100 µM
- TGI (KM12 colon): > 100 µM
- TGI (MDA-MB-231 breast): > 100 µM
- TGI (PC-3 prostate): > 100 µM
- TGI (SNB-75 CNS): > 100 µM
- TGI (U251 CNS): > 100 µM
- TGI (SNB-19 CNS): > 100 µM
- TGI (LOX IMVI melanoma): > 100 µM
- TGI (SW-620 colon): > 100 µM
- TGI (UACC-257 melanoma): > 100 µM
- TGI (SK-MEL-5 melanoma): > 100 µM
- TGI (CAKI-1 renal): > 100 µM
- TGI (NCI-H460 lung): > 100 µM
- TGI (HCT-116 colon): > 100 µM
- TGI (MDA-MB-435): > 100 µM
- TGI (SK-OV-3 ovarian): > 100 µM
- TGI (CCRF-CEM leukemia): > 100 µM
- TGI (EKVX NSCLC): > 100 µM
- TGI (HL-60(TB) leukemia): > 100 µM
- TGI (MCF7 breast): > 100 µM
- TGI (UO-31 renal): > 100 µM
- TGI (HCT-15 colon): > 100 µM
- TGI (HOP-92 NSCLC): > 100 µM
- TGI (786-0 renal): > 100 µM
- TGI (K-562 leukemia): > 100 µM
- TGI (NCI-H226 lung): > 100 µM
- TGI (SF-539 CNS): > 100 µM
- TGI (NCI-H23 lung): > 100 µM
- TGI (TK-10 renal): > 100 µM
- TGI (RXF 393 renal): > 100 µM
- TGI (ACHN renal): > 100 µM
- TGI (RPMI-8226 leukemia): > 100 µM
- TGI (HT29 colon): > 100 µM
- TGI (NCI/ADR-RES ovarian): > 100 µM
- TGI (IGROV1 ovarian): > 100 µM
- TGI (A498 renal): > 100 µM
- TGI (SR leukemia): > 100 µM
- TGI (HS 578T breast): > 100 µM
- TGI (COLO 205 colon): > 100 µM
- TGI (OVCAR-8 ovarian): > 100 µM
- TGI (HOP-62 NSCLC): > 100 µM
- TGI (SF-268 CNS): > 100 µM
- TGI (M14 melanoma): > 100 µM
- TGI (SK-MEL-2 melanoma): > 100 µM
